From US4469692A, “Spiro derivatives of the pyrazolo [1,5-d] [1,2,4] triazine ring system and a process for the preparation thereof” (Alkaloida Vegyeszeti Gyar, priority 1981, dated 1984)
“Also recorded” adds a separate entry of the source.

Key:
[1] = Acute toxicity (LD50, lethality) in rabbits; settings: rabbit, in vivo; for LD50: iv, LD50, rabbits
[2] = Acute toxicity (LD50) in rats; settings: rat, in vivo, iv
[3] = tested on: rabbits; experiment: Hypnotic effect in rabbits (method of Janssen et al.); type: in vivo; settings: for minimal effective dose: Oryctolagus cuniculus, iv, read-out: Hmin; for Mean duration of sleep: i.v., in the case of dose Hmin
Protocol: (§1) The hypnotic activity is measured by the method of Janssen et al. (J. Med. Chem. 8, 220/1965/). Ketalar/2-(2-chlorophenyl)-2-methyl-amino-cyclohexanone/ and Hexobarbital (5-methyl-5-hexenyl-barbituric acid) were applied as reference compounds.

[4] = Acute toxicity (LD50) in mice; settings: mouse, in vivo, iv
[5] = tested on: rats; experiment: Hypnotic effect in rats (method of Janssen et al.); type: in vivo; settings: for ED50: Rattus norvegicus, iv, read-out: HD50 (the source's name); for Mean duration of sleep: i.v., in the case of dose HD50
Protocol: as §1

[6] = tested on: mice; experiment: Hypnotic effect in mice (method of Janssen et al.); type: in vivo; settings: for minimal effective dose / ED50: Mus musculus, iv; for minimal effective dose: 0.05 h, read-out: Hmin (minimal hypnotic dose inducing sleep in all animals for a period exceeding 3 minutes); for minimal effective dose / Mean duration of sleep: i.v.; for ED50: read-out: HD50 (dose inducing sleep in 50 percent of the animals)
Protocol: as §1

[7] = Postnarcotic period following awakening and adverse effects; type: in vivo; settings: postnarcotic period following awakening
[8] = tested on: mice; experiment: Acute toxicity (LD50) in mice; settings: mice, Tables 1 and 2

Compound	mortality ([1]; 50 mg/kg)	LD50 [1]	LD50 [2]	minimal effective dose [3]	Mean duration of sleep [3]	LD50 [4]	ED50 [5]	Mean duration of sleep [5]	minimal effective dose [6]	ED50 [6]	Mean duration of sleep ([6]; in the case of dose HD50)	Mean duration of sleep ([6]; in the case of dose Hmin)	adverse effects of the postnarcotic period [7]	toxicity compared with reference substances [8]	therapeutic index compared with reference substances ([5]; Table 3)	hypnotic effect compared with Hexobarbital and Ketalar ([6]; Tables 1 and 2, listed as compound of the invention)	Mean duration of sleep ([6]; at a dose of 40 mg/kg)
CNC1(c2ccccc2Cl)CCCCC1=O (stereo not drawn) [Ketalar, 2-(2-chlorophenyl)-2-methyl-amino-cyclohexanone]	80%	< 50 mg/kg	39.4 mg/kg	25 mg/kg	14 min	62 mg/kg	8 mg/kg	1.9 min	25 mg/kg	14.5 mg/kg	1.7 min	5.0 min					
Cc1cc2n(n1)C1(CCCCC1)N(C)N(C)C2=O [Example 5, Spiro[cyclohexane-1,7'-/6,7-dihydro-2,5,6-trimethylpyrazolo[1,5-d][1,2,4]triazin-4(5H)-one/]]		~325 mg/kg	275 mg/kg	25 mg/kg	6 min	192 mg/kg	16 mg/kg	1.5 min	25 mg/kg	17.5 mg/kg	2.8 min	6.75 min	devoid of any adverse effects	substantially lower than that of any of the above reference substances	more advantageous in both instances	superior to that of Hexobarbital; also recorded: in the same range as that of Ketalar	
CN1C(=O)NC(=O)C(C)(C2=CCCCC2)C1=O (stereo not drawn) [Hexobarbital, 5-methyl-5-hexenyl-barbituric acid]			125 mg/kg			118 mg/kg	17.5 mg/kg	4.45 min	45 mg/kg	25 mg/kg	4.1 min	7.2 min					2.6 min
